Experimental findings from patent publication US20020013478A1, “Calanolide analogues and methods of their use” (Sarawak Medichem Pharmaceuticals,Inc., priority 1994, published 2002) are described below.

SMILES strings stand for the structures. Where two headings read alike, the source gives them in different places.

One assay relates to HBV. The experiment in a line: HBV replication in cultures of 2.2.15 cells, extracellular HBV virion DNA (primary assay). Particulars: for EC50: read-out: HBV EC50.
Assay [1] has as its system HIV-1. The experiment in a line: microbe, parasite or virus in culture. The settings on record: Human immunodeficiency virus 1, CEM-SS.
Assay [2] has as its system HIV-1.
The subject of assay [3] is HCMV isolates Towne, AD169, E. Mann, Coffman, C9208. The experiment in a line: Anti-CMV plaque reduction assay against various laboratory and clinical isolates (Example 40). Type of assay: cell-based, human cytomegalovirus. (Plaques are areas of infected cells; plaque reduction assays count them against a control.)

For orientation: EC50 means the concentration giving half of the maximal effect.

Procedure for HBV: Both intracellular and extracellular HBV DNA are analyzed in order to (i) allow for verification of compound efficacy and (ii) provide possible data on the target site in the HBV replication pathway for the compound from examination of the pattern of viral replicative forms. The culture medium is changed daily during the treatment period to (i) prevent the buildup of potentially toxic metabolites derived from test compounds and (ii) provide an analysis of HBV virion production during discrete 24-hour intervals which enables a quantitative comparison of any effect on virion production.
The analysis of HBV DNA is performed using blot hybridization techniques (Southern and slot blot) and [^32P]-labeled HBV-specific probes. HBV DNA levels are measured by comparison to known amounts of HBV DNA standards applied to every nitrocellulose membrane (gel or slot blot). An AMBIS beta scanner, which measures the radioactive decay of the hybridized probes directly from the nitrocellulose membranes, is used for the quantitative analysis. Standard curves, generated by multiple analyses, are used to correlate CPM measurements made by the beta scanner with relative levels of target HBV DNA. The levels of HBV virion DNA released into the culture medium are analyzed by a slot blot hybridization procedure.

Regarding `CCCc1cc(=O)oc2c3c(c4c(c12)OC(C)(C)C=C4)O[C@H](C)[C@@H](C)C3=O` [(+)-7, 10(R),11(R)-trans-Dihydro6,6,10,11-tetramethyl-4-propyl-2H,6H,12H-benzo [1,2-b:3,4-b′:5,6-b″]tripyran-2,12-dione], the EC50 in the assay with HBV (Hepatitis B virus) was determined as 7.2 µM; in the assay on HIV-1 [1], 0.68 µM; in assay [3] (Human betaherpesvirus 5, AD169, isolate AD169), 3.16 µM; in assay [3] (Human betaherpesvirus 5, AD169, isolate C9208), 4.91 µM; in assay [3] (Human betaherpesvirus 5, AD169, isolate Coffman), 4.78 µM; in assay [3] (Human betaherpesvirus 5, AD169, isolate E. Mann) it was 4.65 µM. The EC50 in assay [3] (Human betaherpesvirus 5, AD169, isolate Towne) came out at 5.02 µM. In the assay with HBV (text summary of Table II), the “potency against HBV” value was “potent”. The “Maximum Protection (%)” value in the assay on HIV-1 [2] (CEM-SS MTT assay) amounted to 90%. Besides, the “protecting cells against HIV infection” value with HIV-1 [2] (text summary of Table I) was “highly efficacious”.

On to `CCCc1cc(=O)oc2c3c(c4c(c12)OC(C)(C)C=C4)OC(C)C(C)C3=O` (racemic) [(±)-7a], for which the EC50 in the assay on HBV (Table II) amounted to 44 µM; in the assay with HIV-1 [2] (CEM-SS MTT assay), 2.82 µM; in assay [3] (isolate AD169), 3.16 µM; in assay [3] (isolate C9208), 2.6 µM; in assay [3] (isolate Coffman), 3.16 µM; in assay [3] (isolate E. Mann), 3.16 µM. The EC50 in assay [3] (isolate Towne) was determined as 3.08 µM. Moreover, in the assay on HIV-1 [2] (CEM-SS MTT assay), the “Maximum Protection (%)” value is reported as 55%.
